Values of other authors, collected in patent publication US9549925B2, “Lipid-based compositions of antiinfectives for treating pulmonary infections and methods of use thereof” (Insmed Incorporated, priority 2005, dated 2017).

Conditions: free tobramycin, nebulized, nominal dose 300 mg; absorption into the systemic circulation

absorption half-life from the lung: about 1.5 hr
Structure (SMILES): NC[C@H]1O[C@H](O[C@H]2[C@H](O)[C@@H](O[C@H]3O[C@H](CO)[C@@H](O)[C@H](N)[C@H]3O)[C@H](N)C[C@@H]2N)[C@H](N)C[C@@H]1O [tobramycin, Tobramycin]
